Like-named read-outs stand apart in the source and are kept apart here. Where only a bound is given, the exact number is not on record here.

The test concerns the target T1, Farnesyl protein transferase (FPT) (Rattus norvegicus, UniProt Q02293+Q04631).
T1 construct: Farnesyl protein transferase (FPT) was partially purified from rat brain; from tissue; host or cells: rat brain
In words: In vitro enzyme assay: inhibition of farnesyl protein transferase (transfer of [3H]farnesyl from [3H]farnesyl pyrophosphate to Ras-CVLS). In kind it is biochemical. As to conditions: for FPT inhibition (percent inhibition): @ 0.06 µg/µL; for inhibition at 0.11 µM: @ 110 nM. The source says:
1. In vitro enzyme assays: Inhibition of farnesyl protein transferase and geranylgeranyl protein transferase.
Farnesyl protein transferase (FPT) was partially purified from rat brain by ammonium sulfate fractionation followed by Q-Sepharose (Pharmacia, Inc.) anion exchange chromatography essentially as described by Yokoyama et al (Yokoyama, K., et al., (1991), A protein geranylgeranyltransferase from bovine brain: Implications for protein prenylation specificity, Proc. Natl. Acad. Sci USA 88: 5302-5306, the disclosure of which is incorporated herein by reference thereto). Human famesyl protein transferase was also expressed in E. coli, using cDNA clones encoding both the a and b subunits. The methods used were similar to those published (Omer, C. et al., (1993), Characterization of recombinant human farnesyl protein transferase: Cloning, expression, famesyl diphosphate binding, and functional homology with yeast prenyl-protein transferases, Biochemistry 32:5167-5176). Human famesyl protein transferase was partially-purified from the soluble protein fraction of E. coli as described above. […] Two forms of val^12-Ha-Ras protein were prepared as substrates for these enzymes, differing in their carboxy terminal sequence. One form terminated in cysteine-valine-leucine-serine (Ras-CVLS) the other in cystein-valine-leucine-leucine (Ras-CVLL). Ras-CVLS is a substrate for the famesyl protein transferase while Ras-CVLL is a substrate for geranylgeranyl protein transferase I. The cDNAs encoding these proteins were constructed so that the proteins contain an amino-terminal extension of 6 histidine residues. Both proteins were expressed in Escherichia coli and purified using metal chelate affinity chromatography. The radiolabelled isoprenyl pyrophosphate substrates, [^3H]farnesyl pyrophosphate and [^3H]geranylgeranyl pyrophosphate, were purchased from DuPont/New England Nuclear.
Several methods for measuring famesyl protein transferase activity have been described (Reiss et al 1990, Cell 62: 81; Schaber et al 1990, J. Biol. Chem. 265: 14701; Manne et al 1990, PNAS 87: 7541; and Barbacid & Manne 1993, U.S. Patent No. 5,185,248). […] The reaction was allowed to proceed for 30 minutes at room temperature and then stopped with 0.5 ml of 4% sodium dodecyl sulfate (SDS) followed by 0.5 ml of cold 30% TCA. Samples were allowed to sit on ice for 45 minutes and precipitated Ras protein was then collected on GF/C filter paper mats using a Brandel cell harvester. Filter mats were washed once with 6% TCA, 2% SDS and radioactivity was measured in a Wallac 1204 Betaplate BS liquid scintillation counter. Percent inhibition was calculated relative to the DMSO vehicle control.

[1] abbreviates: FPT INHIBITION, read-out: FPT IC50.
Where [2] appears, read: read-out: FPT IC50, FPT INHIBITION
[3] abbreviates: read-out: FPT inhibition (percent inhibition).

T1 sequence (Q02293 whole entry, one chain of several): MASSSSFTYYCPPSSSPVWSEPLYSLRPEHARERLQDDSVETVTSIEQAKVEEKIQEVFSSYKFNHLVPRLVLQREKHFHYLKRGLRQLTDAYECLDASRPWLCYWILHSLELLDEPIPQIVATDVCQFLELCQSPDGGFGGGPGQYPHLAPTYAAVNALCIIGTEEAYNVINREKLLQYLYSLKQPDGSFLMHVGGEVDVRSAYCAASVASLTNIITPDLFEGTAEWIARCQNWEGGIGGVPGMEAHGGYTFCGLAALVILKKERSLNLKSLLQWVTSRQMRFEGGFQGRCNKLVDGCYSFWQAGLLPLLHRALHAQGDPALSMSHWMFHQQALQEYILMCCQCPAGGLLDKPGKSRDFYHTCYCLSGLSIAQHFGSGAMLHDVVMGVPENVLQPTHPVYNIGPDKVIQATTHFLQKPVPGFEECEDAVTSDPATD

As to `NC(=O)CC(=O)N1CCC([C@H]2c3ncc(Br)cc3CCc3cc(Cl)cc(Br)c32)CC1` [Example 47, 4-(3,10-DIBROMO-8-CHLORO-6,11-DIHYDRO-5H-BENZO[5,6]CYCLO-HEPTA[1,2-b]PYRIDIN-1(R)-YL)-BETA-OXO-1-PIPERIDININE PROPANAMIDE], under setting [1], the IC50 was 0.068 µM.
On to `O=C(CCCC(=O)N1CCC(C2c3ncc(Br)cc3CCc3cc(Cl)cc(Cl)c32)CC1)NCc1ccccc1` (single isomer, unassigned) [Example 21], for which the “FPT inhibition (percent inhibition)” value is 35%@ 0.06 µg/µL.
Consider `O=C(CCN1CCCCC1)N1CCC(C2c3ncc(Br)cc3CCc3cc(Cl)cc(Cl)c32)CC1` (single isomer, unassigned) [Example 9], for which, under setting [1], the IC50 came out at 0.006 µM.
With `CN(C)CC(=O)N1CCC(C2c3ncc(Br)cc3CCc3cc(Cl)cc(Cl)c32)CC1` (single isomer, unassigned) [Example 4], the IC50 under setting [1] was determined as 0.38 µM.
In the case of `COC(=O)CCCC(=O)N1CCC([C@H]2c3ncc(Br)cc3CCc3cc(Cl)cc(Br)c32)CC1` [Example 51, (+)-METHYL 4-(3,10-DIBROMO-8-CHLORO-6,11-DIHYDRO-5H-BENZO[5,6]CYCLO-HEPTA[1,2-b]PYRIDIN-11(R)-YL)-DELTA-OXO-1-PIPERIDININE PENTANOATE], under setting [1], the IC50 is 0.019 µM.
For the compound `O=C(O)CCCC(=O)N1CCC([C@H]2c3ncc(Br)cc3CCc3cc(Cl)cc(Br)c32)CC1` [Example 52, (+)-SODIUM 4-(3,10-DIBROMO-8-CHLORO-6,11-DIHYDRO-5H-BENZO[5,6]CYCLO-HEPTA[1,2-b]PYRIDlN-11(R)-YL)-DELTA-OXO-1-PI[…]], under setting [2], the IC50 amounted to 0.044 µM.
For `COC(=O)CCCCCC(=O)N1CCC([C@H]2c3ncc(Br)cc3CCc3cc(Cl)cc(Br)c32)CC1` [Example 57, (+)-METHYL 4-(3,10-DIBROMO-8-CHLORO-6,11-DIHYDRO-5H-BENZO[5,6]CYCLO-HEPTA[1,2-b]PYRIDIN-11(R)-YL)-OMEGA-OXO-1-PIPERIDININE HEPTANOATE], the IC50 under setting [1] came out at 0.011 µM.
Consider `CCN(CC)CCC(=O)N1CCC(C2c3ncc(Br)cc3CCc3cc(Cl)cc(Cl)c32)CC1` (single isomer, unassigned) [Example 8], for which, under setting [1], the IC50 is 0.014 µM.
Turning to `O=C(O)CCCCC(=O)N1CCC([C@H]2c3ncc(Br)cc3CCc3cc(Cl)cc(Br)c32)CC1` [Example 55, (+)-SODIUM 4-(3,10-DIBROMO-8-CHLORO-6,11-DIHYDRO-5H-BENZO[5,6]CYCLO-HEPTA[1,2-b]PYRIDIN-11(R)-YL)-EPSILON-OXO-1-PI[…]], under setting [2], the IC50 was 0.017 µM.
As for `NC(=O)CCC(=O)N1CCC(C2c3ncc(Br)cc3CCc3cc(Cl)cc(Cl)c32)CC1` (single isomer, unassigned) [Example 12], the IC50 under setting [1] amounted to 0.061 µM.
With `O=C(NCCCCC(=O)N1CCC(C2c3ncc(Br)cc3CCc3cc(Cl)cc(Cl)c32)CC1)c1ccccc1` (single isomer, unassigned) [Example 22], the “FPT inhibition (percent inhibition)” value was found to be 41%@ 0.06 µg/µL.
`NC(=O)N1CCC(C2c3ncc(Br)cc3CCc3cc(Cl)cc(Cl)c32)CC1` (single isomer, unassigned; (+)) [Example 1, (+)-4-(3-BROMO-8,10-DICHLORO-6,11-DIHYDRO-5H-BENZO[5,6]CYCLOHEPTA[1,2-b]PYRIDIN-11-YL)-1-PIPERIDINE CARBOXAMIDE, reference compound]: the IC50 under setting [1] was determined as 0.39 µM.
Still for that read-out and setting: as for `CN(C)CCCCC(=O)N1CCC(C2c3ncc(Br)cc3CCc3cc(Cl)cc(Cl)c32)CC1` (single isomer, unassigned) [Example 7], the figure is 0.022 µM.
On to `O=C(O)CC(=O)N1CCC([C@H]2c3ncc(Br)cc3CCc3cc(Cl)cc(Br)c32)CC1` [Example 46, (+)-SODIUM 4-(3,10-DIBROMO-8-CHLORO-6,11-DIHYDRO-5H-BENZO[5,6]CYCLO-HEPTA[1,2-b]PYRIDIN-11(R)-YL)-BETA-OXO-1-PI[…]], for which, under setting [2], the IC50 came to 0.078 µM.
Consider `COC(=O)CCCCC(=O)N1CCC([C@H]2c3ncc(Br)cc3CCc3cc(Cl)cc(Br)c32)CC1` [Example 54, (+)-METHYL 4-(3,10-DIBROMO-8-CHLORO-6,11-DIHYDRO-5H-BENZO[5,6]CYCLO-HEPTA[1,2-b]PYRIDIN-11(R)-YL)-EPSILON-OXO -1-PIPERIDININE HEXANOATE], for which the IC50 under setting [1] was determined as 0.015 µM.
On the same count and under the same terms, as for `CN(C)CCC(=O)N1CCC(C2c3ncc(Br)cc3CCc3cc(Cl)cc(Cl)c32)CC1` (single isomer, unassigned) [Example 5], the figure is 0.056 µM.
On the same count and under the same terms, with `NCC(=O)N1CCC(C2c3ncc(Br)cc3CCc3cc(Cl)cc(Cl)c32)CC1` (single isomer, unassigned; (+)) [Example 3, (+)-1-(AMINOACETYL)-4-(3-BROMO-8,10-DICHLORO-6,11-DIHYDRO-5H-BENZO[5,6]CYCLO-HEPTA[1,2-b]PYRIDIN-11-YL) PIPERIDINE] the figure was 1.1 µM.
Still for that read-out and setting: as for `NC(=O)CCC(=O)N1CCC([C@H]2c3ncc(Br)cc3CCc3cc(Cl)cc(Br)c32)CC1` [Example 50, (+)-4-(3,10-DIBROMO-8-CHLORO-6,11-DIHYDRO-5H-BENZO[5,6]CYCLO-HEPTA[1,2-b]PYRIDIN-11(R)-YL)-GAMMA-OXO-1-PIPERIDININE BUTANAMIDE], the figure is 0.014 µM; as for `O=C(CCCCCN1C(=O)C=CC1=O)N1CCC(C2c3ncc(Br)cc3CCc3cc(Cl)cc(Cl)c32)CC1` (single isomer, unassigned) [Example 23], 0.62 µM.
In the case of `NC(=O)NCCCC(=O)N1CCC(C2c3ncc(Br)cc3CCc3cc(Cl)cc(Cl)c32)CC1` (single isomer, unassigned; (+)) [Example 31], the IC50 under setting [1] was found to be 0.058 µM.
The same measure, in the same setting: as for `O=C(CCN1C(=O)CCC1=O)N1CCC(C2c3ncc(Br)cc3CCc3cc(Cl)cc(Cl)c32)CC1` (single isomer, unassigned) [Example 11], the figure is 0.076 µM.
On to `CS(=O)(=O)NCC(=O)N1CCC(C2c3ncc(Br)cc3CCc3cc(Cl)cc(Cl)c32)CC1` (single isomer, unassigned; (+)) [Example 28], for which the inhibition at 0.11 µM under setting [3] worked out at 43%.
On the same count and under the same terms, as for `NC(=O)NCC(=O)N1CCC(C2c3ncc(Br)cc3CCc3cc(Cl)cc(Cl)c32)CC1` (single isomer, unassigned; (+)) [Example 30], the figure is 36%.
In the case of `O=C(CCCC(=O)N1CCC(C2c3ncc(Br)cc3CCc3cc(Cl)cc(Cl)c32)CC1)Nc1cccnc1` (single isomer, unassigned) [Example 17], under setting [1], the IC50 is roughly 0.1 µM.
Still for that read-out and setting: with `NCCCC(=O)N1CCC(C2c3ncc(Br)cc3CCc3cc(Cl)cc(Cl)c32)CC1` (single isomer, unassigned; (+)) [Example 27, (+)-1-(4-AMINO-1-OXOBUTYL)-4-(3-BROMO-8,10-DICHLORO-6,11-DIHYDRO-5H-BENZO[5,6]CYCLO-HEPTA[1,2-b]PYRIDIN-11-YL) PIPERIDINE] the figure was 0.13 µM; with `NC(=O)CCCCCC(=O)N1CCC([C@H]2c3ncc(Br)cc3CCc3cc(Cl)cc(Br)c32)CC1` [Example 59, (+)-4-(3,10-DIBROMO-8-CHLORO-6,11-DIHYDRO-5H-BENZO[5,6]CYCLO-HEPTA[1,2-b]PYRIDIN-11(R)-YL)-OMEGA-OXO-1-PIPERIDININE HEPTANAMIDE], 0.0033 µM; with `O=C(NCCCC(=O)N1CCC(C2c3ncc(Br)cc3CCc3cc(Cl)cc(Cl)c32)CC1)Nc1ccccc1` (single isomer, unassigned) [Example 16], greater than 0.1 µM.
For `CC(C)(C)OC(=O)NCCCC(=O)N1CCC(C2c3ncc(Br)cc3CCc3cc(Cl)cc(Cl)c32)CC1` (single isomer, unassigned) [Example 25], the inhibition at 0.33 µM (@ 330nM, read-out: FPT inhibition (percent inhibition)) was determined as 47%.
As to `O=C(CCCN1C(=O)c2ccccc2C1=O)N1CCC(C2c3ncc(Br)cc3CCc3cc(Cl)cc(Br)c32)CC1` (single isomer, unassigned; (+)) [Example 32, (+)-4-(3,10-DIBROMO-8-CHLORO-6,11-DIHYDRO-5H-BENZO[5,6]CYCLO-HEPTA[1,2-b]PYRIDIN-11-YL)-1-[4-(1,3-DIHYDRO-1,3-DIOXO-2H-ISOINDOL-2-YL)-1-OXOBUTYL)PIPERIDINE], the inhibition at 0.088 µM (@ 88 nM, read-out: FPT inhibition (percent inhibition)) was 12%.
For the compound `O=C(CCCC(=O)N1CCC(C2c3ncc(Br)cc3CCc3cc(Cl)cc(Cl)c32)CC1)Nc1ccc(Cl)cc1` (single isomer, unassigned) [Example 20], the inhibition at 0.092 µM (@ 92 nM, read-out: FPT inhibition (percent inhibition)) stood at 0%.
On to `CN(C)CCCC(=O)N1CCC(C2c3ncc(Br)cc3CCc3cc(Cl)cc(Cl)c32)CC1` (single isomer, unassigned) [Example 6], for which inhibition was half-maximal at 0.0065 µM (IC50).

The values above are taken from patent publication EP0929544B1, “TRICYCLIC ANTITUMOR COMPOUNDS BEING FARNESYL PROTEIN TRANSFERASE INHIBITORS” (SCHERING CORPORATION, priority 1996, dated 1998).
